Values of other authors as cited in patent publication US12435156B2, “Methods for treating neuroblastoma with combination therapy” (MEMORIAL SLOAN-KETTERING CANCER CENTER, priority 2018, dated 2025).

How the values were obtained:
[1] = human, in vivo
[2] = not given; remark: listed apart in the source
topoisomerase I = target: T1, topoisomerase I (Homo sapiens, UniProt P11387)
T1 sequence (P11387 1-765): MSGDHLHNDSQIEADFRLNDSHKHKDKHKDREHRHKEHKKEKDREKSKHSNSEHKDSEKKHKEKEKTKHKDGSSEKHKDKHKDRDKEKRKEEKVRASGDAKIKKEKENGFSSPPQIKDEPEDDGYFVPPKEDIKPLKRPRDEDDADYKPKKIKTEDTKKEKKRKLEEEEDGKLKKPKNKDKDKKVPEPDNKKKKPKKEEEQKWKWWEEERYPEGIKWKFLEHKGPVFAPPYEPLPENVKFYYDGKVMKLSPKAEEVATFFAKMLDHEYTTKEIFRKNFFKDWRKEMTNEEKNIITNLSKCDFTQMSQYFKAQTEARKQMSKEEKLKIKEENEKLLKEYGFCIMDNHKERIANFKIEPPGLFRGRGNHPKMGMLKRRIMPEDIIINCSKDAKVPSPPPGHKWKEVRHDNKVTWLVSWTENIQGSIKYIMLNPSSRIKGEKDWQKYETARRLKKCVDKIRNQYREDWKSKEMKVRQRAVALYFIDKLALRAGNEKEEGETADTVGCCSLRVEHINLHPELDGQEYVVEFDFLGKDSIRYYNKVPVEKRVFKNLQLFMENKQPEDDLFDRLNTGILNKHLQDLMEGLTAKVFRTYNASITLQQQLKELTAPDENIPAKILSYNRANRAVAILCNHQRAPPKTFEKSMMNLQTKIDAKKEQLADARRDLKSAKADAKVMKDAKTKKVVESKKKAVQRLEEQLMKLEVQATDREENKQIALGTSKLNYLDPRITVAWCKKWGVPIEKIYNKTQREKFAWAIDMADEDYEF

[3] = not given; remark: listed apart in the source
[4] = not given; remark: listed apart in the source

NC(=O)c1[nH]cnc1N [AIC]
Exposure relative to the AUC of temozolomide (in vivo): 23%

CCc1c2c(nc3ccc(OC(=O)N4CCC(N5CCCCC5)CC4)cc13)-c1cc3c(c(=O)n1C2)COC(=O)[C@]3(O)CC [Irinotecan, (S)-4,11-diethyl-4-hydroxy-3,14-dioxo-3,4,12,14-tetrahydro-1H-pyrano[3′,4′:6,7]indolizino[1,2-b]quinolin-9-yl [1,4′-bipiperidine]-1′-carboxylate]
Toxicity associated with treatment [1]: severe diarrhea, myelosuppression, and neutropenia
Water solubility [2]: water-soluble

CCc1c2c(nc3ccc(O)cc13)-c1cc3c(c(=O)n1C2)COC(=O)[C@]3(O)CC [SN-38, 7-ethyl-10-hydroxycamptothecin]
Topoisomerase I inhibitor potency/activity (topoisomerase I): much higher potency than irinotecan

CCc1c2c(nc3ccc(O[C@@H]4O[C@H](C(=O)O)[C@@H](O)[C@H](O)[C@H]4O)cc13)-c1cc3c(c(=O)n1C2)COC(=O)[C@]3(O)CC [SN-38G, SN-38 glucuronide]
Topoisomerase I inhibitor potency/activity (topoisomerase I): inactive

Cn1nnc2c(C(N)=O)ncn2c1=O [Temozolomide, 3,4-dihydro-3-methyl-4-oxoimidazo[5,1-d]-as-tetrazine-8-carboxamide]
Dose-limiting side effects [1]: hematologic toxicity, myelosuppression, anemia, and leukopenia
Mean apparent volume of distribution (% CV=13%): 0.4 L/kg
Kinetics over the therapeutic dosing range (in vivo): linear kinetics
Overall clearance (in vivo): about 5.5 L/hr/m^2
Absorption after oral administration (oral): rapidly and completely absorbed
Time of peak plasma concentrations (oral administration): 1 h
Administered total radioactive dose recovered in feces (over 7 days): 0.8%
Administered total radioactive dose recovered in urine (over 7 days): 37.7%
Administered total radioactive dose recovered (over 7 days, total): About 38%
Stability at physiologic pH [3]: spontaneously hydrolyzed
Mean percent bound of drug-related total radioactivity (human plasma proteins): 15%
Role of cytochrome P450 enzymes in metabolism (Cytochrome P450 enzymes): only a minor role

Cn1nnc2c(C(=O)O)ncn2c1=O [temozolomide acid metabolite]
Recovery of radioactivity in urine as this species (after temozolomide radioactive dose): 2.3%

sargramostim: Yeast-derived human recombinant granulocyte-macrophage colony stimulating factor
Storage of liquid once the vial has been entered ([4]; 2-8° C.): up to 20 days
pH of reconstituted solution ([4]; 250 mcg vial reconstituted with 0.5 mL sterile water, 500 mcg/mL): 7.4±0.3
Time to administration following reconstitution ([4]; single-use 250 mcg vials, no preservative): ≤ 6 h
